Test results from patent US20120142771A1, “BIPHENYLACETAMIDE DERIVATIVE” (Dainippon Sumitomo Pharma Co., Ltd., priority 2008, published 2012).
Where two headings read alike, the source gives them in different places.

Tests used:
[1] = tested on: subcutaneously pentetrazol-injected model (scPTZ); experiment: Subcutaneously pentetrazol-injected model (scPTZ) test; assay type: in vivo, mice; settings: pentetrazol 85 mg/kg s.c. after 1 hour; for responders at 50 mg/kg / responders at 100 mg/kg: Mus musculus, po, 1 h, read-out: scPTZ (positive number/tested number) (converted); for responders at 50 mg/kg / responders at 100 mg/kg / scPTZ (positive number/tested number): Slc: ddY male mice, 3 per group, observed 30 minutes for clonic convulsion; for anticonvulsant action in subcutaneously pentetrazol-injected model (scPTZ) test: mice, oral 50 or 100 mg/kg
Summary of the method: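 Pentetrazol (85 mg/kg, s.c.) was injected one hour after oral test compound at 50 or 100 mg/kg in groups of three male Slc:ddY mice weighing 20-30 g; vehicle controls got 0.5% tragacanth or 0.5% methylcellulose.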

[2] = tested on: amygdala-kindling model; experiment: Amygdala-kindling model in rats; assay type: in vivo
Source text: Test 3: Test with Amygdala-Kindling Model in Rats
Test 3 evaluates the anticonvulsant action of medicaments in rats, besides mice in Tests 1 and 2. Animal model (kindling model) used herein is a very similar model to clinical findings of focal onset seizures (i.e. simple partial seizure, complex partial seizure, and secondarily generalized tonic-clonic seizure), which is known to provide excellent clinical prediction. A chronic electrode was implanted in the cortex (frontal and posterior regions) and the amygdala of Slc: Wistar male rats (body weight 250-300 g). One week after the above operation, electrical stimulation (50 Hz, 400 μA, 1 second) into the amygdala was conducted once a day for about two weeks. The stimulation condition was determined according to the method of Loscher et al. [Epilepsy Res., 40: 63-77 (2000)]. The stimulation was continued until the seizure stage 5 in the seizure severity stages according to the method of Racine et al. [Motor seizure. Electroenceph. Clin. Neurophysiol., 32:281-294 (1972)] was observed 10 consecutive times. Kindling model was thus completed. Then, test compounds (100 mg/kg) were orally administered to this model. After an hour of administration, the rats were evaluated based on three parameters, i.e., a threshold stimulus current to induce seizure (i.e. seizure threshold), the duration of afterdischrage observed on an electroencephalogram, and seizure severity (stage scores 1-5). The results of the seizure threshold and the afterdischarge duration were shown as average percentage of change from the pretreatment value obtained before the administration of each test compound. To the control rats, 0.5% tragacanth solution was administered. Minus means decreased or shortened.

[3] = tested on: maximum electroshock seizure (MES) model; experiment: Maximum electroshock seizure (MES) model test; assay type: in vivo, mice; settings: for responders at 50 mg/kg / responders at 100 mg/kg: Mus musculus, po, 1 h, read-out: MES (positive number/tested number) (converted); for responders at 50 mg/kg / responders at 100 mg/kg / MES (positive number/tested number): Slc: ddY male mice, 3 per group, electrical stimulation 1 hour after administration, inhibition of hind limb extension; for anticonvulsant action in maximum electroshock seizure (MES) model test: mice, oral 50 or 100 mg/kg, 1 hour after administration
Summary of the method: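 Tonic hind-limb extension was elicited by corneal electroshock (60 Hz, 25 mA, 0.2 s) 1 h after oral dosing. Test compounds were given at 50 or 100 mg/kg to groups of 3 male Slc: ddY mice (20-30 g), vehicle controls receiving 0.5% tragacanth or 0.5% methylcellulose solution.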

[4] = tested on: Slc: ddY male mice; experiment: Rotarod performance test (motor disturbance); assay type: in vivo; settings: 1 hour after administration, 10 mice
Procedure: Test 5: Rotarod Performance Test
Test 5 evaluates whether motor disturbance is caused by medicaments. On the day before the test, Slc: ddY male mice (body weight 20-30 g) were trained so that they could walk on a rotarod apparatus for 3 minutes without falling, wherein a cylinder of 4 cm diameter is rotated with a speed of 13 rotations per minute. Test compounds were orally administered to a group consisting of 10 mice. […] When the mice fell down within 100 seconds because of disturbed motor coordination, such mice were counted as positive. To the control mice, 0.5% methylcellulose solution was administered.

[5] = tested on: 6 Hz psychomotor seizure model; experiment: 6 Hz psychomotor seizure model; assay type: in vivo, mice; settings: mice; for ED50: 6 Hz psychomotor seizure model, read-out: ED50; for ED50 / 6 Hz (Positive number/tested number): oral; for efficacy in 6 Hz psychomotor seizure model: oral administration at a dose of 100 mg/kg; for 6 Hz (Positive number/tested number): dose 100 mg/kg, 30 minutes or 1 hour after administration
Procedure: Test 4: Test of 6 Hz Psychomotor Seizure Model
Similar to Tests 1 and 2, Test 4 evaluates the anticonvulsant action of medicaments. However, unlike Tests 1 and 2, the animal model used herein represents clinical phenotypes of seizures resistant to existing antiepileptic drugs. […] After 30 minutes or an hour of administration, their corneas were electrically stimulated (6 Hz, 32 mA, 3 seconds) to induce symptoms of myoclonus in their forelimbs, Straub tail, and immobility. […] To the control mice, 0.5% tragacanth solution, 0.5% methylcellulose solution, or olive oil was administered.

NC(=O)Cc1ccccc1-c1cccc(F)c1 [Example 25, 2-(3′-fluorobiphenyl-2-yl)acetamide]
responders at 50 mg/kg ([1]; 50 mg/kg oral): 100%
responders at 100 mg/kg ([1]; 100 mg/kg oral): 100%
anticonvulsant action in subcutaneously pentetrazol-injected model (scPTZ) test [1]: anticonvulsant action was observed
Seizure threshold (uA) Δ % change ([2]; 100 mg/kg oral, 1 hour after administration, average percentage of change from pretreatment value): 69.4%
Afterdischarge duration (sec) Δ % change ([2]; 100 mg/kg oral, 1 hour after administration, change from pretreatment value, minus means shortened): −100%
Seizure severity score ([2]; 100 mg/kg oral, 1 hour after administration, stage scores 1-5): 0.0
efficacy against the amygdala-kindling model ([2]; oral administration at a dose of 100 mg/kg): potent efficacy
responders at 50 mg/kg ([3]; 50 mg/kg oral): 100%
responders at 100 mg/kg ([3]; 100 mg/kg oral): 100%
anticonvulsant action in maximum electroshock seizure (MES) model test [3]: anticonvulsant action was observed
The rate of mice which fell within 100 seconds (%) ([4]; 100 mg/kg oral): 0%
The rate of mice which fell within 100 seconds (%) ([4]; 200 mg/kg oral): 10%
The rate of mice which fell within 100 seconds (%) ([4]; 300 mg/kg oral): 60%
The rate of mice which fell within 100 seconds (%) ([4]; 400 mg/kg oral): 90%
ED50 ([5]; Mus musculus): 61.9 mg/kg
efficacy in 6 Hz psychomotor seizure model [5]: potent efficacy
6 Hz (Positive number/tested number) [5]: 10/10/100

NC(=O)Cc1cc(F)ccc1-c1ccccc1F [Example 46, 2-(2′,4-difluorobiphenyl-2-yl)acetamide]
responders at 50 mg/kg ([1]; 50 mg/kg oral): 0%
responders at 100 mg/kg ([1]; 100 mg/kg oral): 100%
responders at 50 mg/kg ([3]; 50 mg/kg oral): 66.7%
responders at 100 mg/kg ([3]; 100 mg/kg oral): 100%
The rate of mice which fell within 100 seconds (%) ([4]; 100 mg/kg oral): 20%
The rate of mice which fell within 100 seconds (%) ([4]; 200 mg/kg oral): 20%
The rate of mice which fell within 100 seconds (%) ([4]; 300 mg/kg oral): 60%
The rate of mice which fell within 100 seconds (%) ([4]; 400 mg/kg oral): 90%
ED50 ([5]; Mus musculus): 120 mg/kg
6 Hz (Positive number/tested number) [5]: 5/10/100

NC(=O)Cc1ccccc1-c1cc(Cl)cc(Cl)c1 [Example 71, 2-(3′,5′-dichlorobiphenyl-2-yl)acetamide]
responders at 50 mg/kg ([1]; 50 mg/kg oral): 66.7%
responders at 100 mg/kg ([1]; 100 mg/kg oral): 66.7%
anticonvulsant action in subcutaneously pentetrazol-injected model (scPTZ) test [1]: anticonvulsant action was observed
responders at 50 mg/kg ([3]; 50 mg/kg oral): 66.7%
responders at 100 mg/kg ([3]; 100 mg/kg oral): 100%
anticonvulsant action in maximum electroshock seizure (MES) model test [3]: anticonvulsant action was observed
The rate of mice which fell within 100 seconds (%) ([4]; 100 mg/kg oral): 0%
The rate of mice which fell within 100 seconds (%) ([4]; 200 mg/kg oral): 20%
The rate of mice which fell within 100 seconds (%) ([4]; 300 mg/kg oral): 30%
The rate of mice which fell within 100 seconds (%) ([4]; 400 mg/kg oral): 70%
ED50 ([5]; Mus musculus): 82.8 mg/kg
6 Hz (Positive number/tested number) [5]: 7/10/100

NC(=O)C(O)c1ccccc1-c1cccc(F)c1 (stereo not drawn) [Example 178, 2-(3′-fluorobiphenyl-2-yl)-2-hydroxyacetamide]
responders at 50 mg/kg ([1]; 50 mg/kg oral): 100%
responders at 100 mg/kg ([1]; 100 mg/kg oral): 100%
anticonvulsant action in subcutaneously pentetrazol-injected model (scPTZ) test [1]: anticonvulsant action was observed
responders at 50 mg/kg ([3]; 50 mg/kg oral): 66.7%
responders at 100 mg/kg ([3]; 100 mg/kg oral): 100%
anticonvulsant action in maximum electroshock seizure (MES) model test [3]: anticonvulsant action was observed
ED50 ([5]; Mus musculus): 117 mg/kg
6 Hz (Positive number/tested number) [5]: 5/10/100

NC(=O)C(O)c1ccccc1-c1cc(Cl)cc(Cl)c1 (stereo not drawn) [Example 183, 2-(3′,5′-dichlorobiphenyl-2-yl)-2-hydroxyacetamide]
responders at 50 mg/kg ([1]; 50 mg/kg oral): 66.7%
responders at 100 mg/kg ([1]; 100 mg/kg oral): 66.7%
anticonvulsant action in subcutaneously pentetrazol-injected model (scPTZ) test [1]: anticonvulsant action was observed
responders at 50 mg/kg ([3]; 50 mg/kg oral): 100%
responders at 100 mg/kg ([3]; 100 mg/kg oral): 100%
anticonvulsant action in maximum electroshock seizure (MES) model test [3]: anticonvulsant action was observed
6 Hz (Positive number/tested number) [5]: 4/5/100

NC(=O)C(O)c1ccccc1-c1cc(F)ccc1Cl (stereo not drawn) [Example 185, 2-(2′-chloro-5′-fluorobiphenyl-2-yl)-2-hydroxyacetamide]
responders at 50 mg/kg ([1]; 50 mg/kg oral): 66.7%
responders at 100 mg/kg ([1]; 100 mg/kg oral): 100%
anticonvulsant action in subcutaneously pentetrazol-injected model (scPTZ) test [1]: anticonvulsant action was observed
responders at 50 mg/kg ([3]; 50 mg/kg oral): 66.7%
responders at 100 mg/kg ([3]; 100 mg/kg oral): 100%
anticonvulsant action in maximum electroshock seizure (MES) model test [3]: anticonvulsant action was observed
efficacy in 6 Hz psychomotor seizure model [5]: potent efficacy
6 Hz (Positive number/tested number) [5]: 5/5/100

NC(=O)C(O)c1cc(F)ccc1-c1cc(Cl)cc(Cl)c1 (stereo not drawn) [Example 189, 2-(3′,5′-dichloro-4-fluorobiphenyl-2-yl)-2-hydroxyacetamide]
responders at 50 mg/kg ([1]; 50 mg/kg oral): 33.3%
responders at 100 mg/kg ([1]; 100 mg/kg oral): 66.7%
responders at 50 mg/kg ([3]; 50 mg/kg oral): 100%
responders at 100 mg/kg ([3]; 100 mg/kg oral): 66.7%
6 Hz (Positive number/tested number) [5]: 3/5/100

NC(=O)C(O)c1ccccc1-c1ccccc1Cl (stereo not drawn) [Example 190, 2-(2′-chlorobiphenyl-2-yl)-2-hydroxyacetamide]
responders at 50 mg/kg ([1]; 50 mg/kg oral): 66.7%
responders at 100 mg/kg ([1]; 100 mg/kg oral): 66.7%
anticonvulsant action in subcutaneously pentetrazol-injected model (scPTZ) test [1]: anticonvulsant action was observed
responders at 50 mg/kg ([3]; 50 mg/kg oral): 66.7%
responders at 100 mg/kg ([3]; 100 mg/kg oral): 100%
anticonvulsant action in maximum electroshock seizure (MES) model test [3]: anticonvulsant action was observed
efficacy in 6 Hz psychomotor seizure model [5]: potent efficacy
6 Hz (Positive number/tested number) [5]: 5/5/100

NC(=O)[C@@H](O)c1ccccc1-c1ccccc1 [Example 208, 2-(biphenyl-2-yl)-2S-hydroxyacetamide]
scPTZ (positive number/tested number) ([1]; 50 mg/kg oral): 1/3
scPTZ (positive number/tested number) ([1]; 100 mg/kg oral): 2/3
MES (positive number/tested number) ([3]; 50 mg/kg oral): 2/3
MES (positive number/tested number) ([3]; 100 mg/kg oral): 3/3
ED50 [5]: 90.6 mg/kg
6 Hz (Positive number/tested number) [5]: 7/10/100
